Patent US20080274057A1, “Staudinger Reaction in Imaging and Therapy and Kits for Use in Imaging and Therapy” (KONINKLIJKE PHILIPS ELECTRONICS, N.V., priority 2005, published 2008)
Like-named read-outs stand apart in the source and are kept apart here.

Assays:
[1] = Activation of model azido-prodrug 4 by 3-(diphenylphosphino)benzenesulfonate (5), followed with 1H NMR
Procedure: 9) Activation of model azido-prodrug 4-azidobenzyl N-benzyl carbamate (4) by 3-(diphenylphosphino)benzenesulfonate (5) in two different media.
In DMF/H2O (3.5/1): Prodrug 4 (5.3 mg, 18.8 μmol) was dissolved in 952 μl DMF-d7 and 275 μl D2O. Phosphine 5 (12.1 mg, 33.2 μmol) was added and the reaction was followed with ^1H NMR. The reaction had run to completion within 14 hours as judged from the disappearance of the CH2 azidobenzyl signal at 4.83 ppm and the appearance of the CH2 signal of the corresponding aminobenzylalcohol (7) at 4.64 ppm.
In THF/H2O (1/1): Prodrug 4 (4.8 mg, 17.0 μmol) was dissolved in 275 μl THF-d8 and 275 μl D2O. Phosphine 5 (11.3 mg, 31.0 μmol) was added to the slightly yellow solution after which gas development was observed. The reaction was followed with ^1H NMR and had to run to 50% after 7 hours as judged from the disappearance of the CH2 benzyl signal at 4.38 ppm and the appearance of the CH2 signal of the corresponding free benzylamine (6) at 3.99 ppm.

A431 cells = details: for anti-proliferative activity (ranking): 72 hours incubation, ranking among pro-dox, pro-dox plus phosphine, and doxorubicin
Procedure: 12) Cell proliferation assay using A431 cells with prodrug 9 (pro-dox) in situ activated by triphenylphosphine.
The in vitro anti-cancer activity of prodrug 9 (pro-dox) was assessed by means of cytotoxicity assays. For these cellular experiments the A431 cell line was used. […] The addition of the prodrug in combination with phosphine should lead to a reduction in proliferation compared to the addition of pro-dox without phosphine, due to the release of doxorubicin by means of the staudinger reaction.
Cells were maintained at 37° C. in DMEM (InVitrogen), supplemented with 10% heat-inactivated fetal bovine serum and 0.05% glutamax (InVitrogen) in the presence of penicillin and streptomycin.
Doxorubicin (Toronto Research Chemicals) and pro-dox (9) were, prior to each experiment, freshly dissolved in DMF at 10 mM and subsequently serial diluted in pre-warmed culture medium. Triphenylphosphine-3,3′,3″-trisulfonic acid trisodium salt (Sigma) was dissolved in PBS at 10 mM and serial diluted in pre-warmed medium. Methylthiazolyldiphenyl-tetrazolium bromide, MTT (Sigma) was used as described by the manufacturer.
Cells were plated out in a 96 well plate (Nunc) at a density of 7500 cells/well, followed by addition of reagents the next day. After 72 hours incubation cell proliferation was assessed by means of a MTT assay. Briefly, MTT was dissolved in pre-warmed medium at 5 mg/ml, passed through a 0.22 μm filter and 50 μl was added to each well. Following an incubation period of 120 minutes the medium was gently aspirated. The formed formazan crystals were dissolved in 100 μl DMSO and the absorbance, or optical density (O.D.), was measured with a plate reader (BMG) at 560 nm. The inhibition of proliferation was determined by reporting the O.D. of the treated group (T) with the O.D. of the appropriate control group (C), and expressed as [(1-T/C)×100%].
Therefore, instead of adding the prodrug to the cell culture together with a single batch triphenylphosphine on day 2, the phosphine was added at fixed intervals from day 2 to day 4. Three phosphine dosing schemes were investigated: 5×10 μM, 5×30 μM, and 5×60 μM. The range of the concentrations used for the doxorubicin drugs was 0-0.01-0.1-0.3-1.0-10 μM.
The above phosphine-dosing scheme was compared to a single batch-dosing scheme at the same total amount of phosphine.

[2] = for extent of activation reaction: 10 μM prodrug
Procedure: 11) Activation of the doxorubicin prodrug (9) followed with HPLC and LC-MS
The activation was carried out in the following way: a solution of prodrug in water or growth medium was mixed with a solution of triphenylphosphine-3,3′,3″-trisulfonic acid trisodium salt in water or growth medium. Samples were taken from the reaction mixture (at 37 C) every 2 hours and measured in the HPLC or LCMS. Several different concentrations and ratios prodrug/triphenylphosphine were used. The first activation experiment was done in water with a concentration of 100 μM for the prodrug and 200 μM for the phosphine, and monitored with HPLC.
The second activation was done at a 10-fold lower concentration, 10 μM for the prodrug and 20 μM for the phosphine, and monitored with LCMS.
The third and last activation was done in cell growth medium at 10 μM prodrug. […] During this experiment a fresh portion (60 μM) triphenylphosphine was added to the mixture twice a day.

Row | Compound | time until reaction had run to completion ([1]; DMF/H2O (3.5/1), prodrug 18.8 μmol, phosphine 5 33.2 μmol) | extent of reaction (release of free benzylamine) ([1]; THF/H2O (1/1), after 7 hours, prodrug 17.0 μmol, phosphine 5 31.0 μmol) | anti-proliferative activity (ranking) (A431 cells; MTT) | activity relative to pro-dox (A431 cells; 72 hours, MTT) | extent of activation reaction ([2]; 20 μM phosphine, after 24 hours, LCMS) | extent of activation reaction ([2]; cell growth medium, fresh 60 μM triphenylphosphine added twice a day, after 8 hours) | time until reaction was complete ([2]; water, 37 C, 100 μM prodrug, 200 μM phosphine, HPLC) | doxorubicin formed ([2]; water, 37 C, 100 μM prodrug, 200 μM phosphine, after 8 hours, HPLC) | increase of activity over pro-dox alone (A431 cells; 72 hours, MTT, pro-dox with 60 μM repetitive dose (5×60 μM) of phosphine) | activation by a single dose of phosphine compared with sequential additions (A431 cells; identical total phosphine amounts)
1 | [N-]=[N+]=Nc1ccc(COC(=O)NCc2ccccc2)cc1 [prodrug 4, 4-azidobenzyl N-benzyl carbamate] | ≤ 14 h | 50% | – | – | – | – | – | – | – | –
2 | COc1cccc2c1C(=O)c1c(O)c3c(c(O)c1C2=O)C[C@@](O)(C(=O)CO)C[C@@H]3O[C@H]1C[C@H](N)[C@H](O)[C@H](C)O1 [Doxorubicin, reference compound] | – | – | highest activity | 2 orders of magnitude | – | – | – | – | – | –
3 | Azidobenzyl carbamate Doxorubicin [prodrug 9] | – | – | lowest anti-proliferative activity | – | approximately 30% | 85% | 20 h | 15% | 33 fold | not nearly as effective
